Source: patent US20100331363A1, “TREATMENT OF MITOCHONDRIAL DISORDERS USING A FARNESYL TRANSFERASE INHIBITOR” (Link Medicine Corporation, priority 2008, published 2010)
“Also recorded” adds a separate entry of the source.

Assays:
[1] = 3T3H-ras (61 L) xenograft tumor-bearing athymic mouse, continuous infusion 7 days, PK/PD; type: in vivo; conditions: intravenous, calculated from minimal continuous serum level of 100 ng/ml, read-out: minimal efficacious AUC
From the text: FIG. 3 provides pharmacokinetic and pharmacodynamic data for continuously infused LNK-754 (CP-609,754) in a 3T3H-ras (61 L) xenograft tumor-bearing athymic mouse (7 day treatment). […] From Pfizer Investigational New Drug Application for CP-609,754, Section 8, Pharmacology and Toxicology, dated Nov. 19, 1999. See also Moulder et al., Clinical Cancer Research 10:7127-7135, Nov. 1, 2004.
Further data supporting the stark difference in dosing levels for efficacy in oncology and synucleinopathies is shown in FIG. 3 and Table 2A below. In the experiment shown in FIG. 3, a xenograft model is once again used, but there is continuous infusion of LNK-754-TS, and thus a steady state concentration of drug in the plasma and tissues.
In the experimental data represented in Table 2A, a different method of drug delivery is used (oral) than in the experiment represented in FIG. 3. The best way to compare the relative coverage of the two delivery methods (oral and continuous infusion) is by comparing area-under-the-curve (AUC) values. We can compare the calculated AUC values for the continuous infusion oncology study presented in FIG. 3 and the AUC values associated with the synuclein model doses in the table. […] The AUCs of orally dosed LNK-754-TS at 0.9 mg/kg and at 0.09 mg/kg QD are 34.6 and […], respectively.

[2] = tested on: LC3-positive puncta (autophagosomes); assay: LC3 immunostaining (LC3-positive puncta) in SH-SY5Y cells; type: cell-based, human; conditions: 100 nM, SH-SY5Y (FIG. 8b)
Method: Cell culture and immunocytochemistry: SH-SY5Y cells were grown in DMEM medium supplemented with 10% FBS and 1% pen/strep at 37° C. and 5% CO2. Cells were differentiated with 10 μM retinoic acid for 48 hr, then treated with the either rapamycin (100 nM or 1 μM) or with 100 nM of either LNK-754-TS or Tipifarnib for 48-72 hr. Cells were then fixed with 4% paraformaldehyde and stained for LC3 (Novus biological, NB100-2331, dilution 1:800) followed by secondary Alexa-564 anti-Rabbit (A-11011).
Autophagy was measured in a neuroblastoma cell culture system by three distinct approaches: quantitation of autophagy-related mRNA's, immunofluorescence microscopy of autophagosomes, and biochemical detection of the microtubule-associated protein 1 light chain 3 (LC3) a key protein that is required for autophagosome formation. Differentiated human neuroblastoma cells (SH-SY5Y) were treated for 72 hr with LNK-754-TS (0.01-100 nM), Zarnestra® (also referred to herein as tipifarnib) (100 nM) or rapamycin (1 μM).

[3] = tested on: TAU; assay: TAU441 transgenic mice, TAU immunoreactivity (AT180, HT7) in amygdala; type: in vivo, mouse; conditions: 0.09 mg/kg once every 24 hours, three months, vs vehicle
Method: Animals and treatments: Male and female human WT alpha-synuclein over-expressing transgenic mice^32 at 6 months of age were given vehicle (10% beta-cyclodextrin) or LNK-754-TS (0.09, 0.9 and 9 mg/kg) per oral gavage twice daily for 3 months or animals at 7 months of age were given vehicle (2.5% beta-cyclodextrin) or LNK-754-TS (2 mg/kg) once every three days for 3 months. […]
Immunohistochemistry and quantification of stained cells: For evaluation of α-synuclein immunoreactivity (IR), 5 sagittal cryo-cut sections (10 μm slice thickness) from five different layers were used for counting of IR cells in the cortex and hippocampus. […] IR positive cells were quantified using specialized image analysis software (Image Pro Plus, version 4.5.1.29). […] Images were evaluated with ImageProPlus (version 6.2) image analysis software. […] Primary antibodies were detected by the ABC method.
This study was designed to evaluate the effects of a treatment with LNK-754-TS dosed at 0.09 mg per kg on behavior, TAU and TAU-pT231 levels, and brain morphology of TAU441 Tg mice. Histological evaluations were performed to quantitatively evaluate TAU pathology. TAU depositions were determined using the monoclonal TAU-antibodies AT180 and HT7. […] Afterwards images were evaluated with ImageProPlus (version 6.2) image analysis software (FIG. 10A).

[4] = tested on: TAU441 transgenic mice; assay: Porsolt forced swim task in TAU441 transgenic mice; type: in vivo, mouse; conditions: 0.09 mg/kg daily for 90 days
From the text: Tests relevant to depression-like behaviors in rodents are primarily stress-induced reductions in avoidance or escape, termed behavioral despair. One of the most widely used animal tests for depression is the Porsolt forced swim task (Porsolt et al., Arch. Int. Pharmacodyn. Ther. 229(2):327-36, 1977; Porsolt et al., Eur. J. Pharmacol. 47(4):379-91, 1978). This study was designed to evaluate the effects of treatment with LNK-754 on behavior of TAU441 transgenic mice. At start of the treatment, the animals were 5 months old. Untreated non-transgenic animals of the same age were tested and sacrificed serving as the baseline group. Mice received vehicle or LNK-754-TS at a dose of 0.09 mg per kg, 7 days a week for 90 days. In the last week of the treatment period and before sacrifice, mice were evaluated using the Porsolt forced swim task (FIG. 10B).

Structure (SMILES): C#Cc1cccc(-c2cc(=O)n(C)c3ccc([C@](O)(c4ccc(Cl)cc4)c4cncn4C)cc23)c1 [LNK-754-TS, (R)-6-[(4-chlorophenyl)-hydroxyl-(1-methyl-1-H-imidazol-5-yl)-methyl]-4-(3-ethynylphenyl)-1-methyl-2-(1H)-quinonlinone (2S, 3S)-dihydroxybutanedioate]
- AUC [1]: ~2400 ng·h/mL
- number of LC3-positive puncta [2]: distinct increase; also recorded: increased
- phosphorylated Tau (AT180) immunoreactivity in amygdala [3]: significantly decreased; also recorded: significant reduction; also recorded: significantly reduced
- total TAU (HT7) immunoreactivity [3]: not significantly reduced; also recorded: did not change
- behavior compared with non-transgenic mice, forced swim task [4]: behaved similar to non-transgenic mice; also recorded: behaved similarly to non-tg mice
- floating, forced swim task ([4]; vs vehicle): significantly less floating; also recorded: decreasing floating behavior
- struggling behavior, forced swim task ([4]; vs vehicle): higher percentage of struggling behavior; also recorded: increasing struggling behavior
